Converted amounts (≈) assume the structure as drawn. Like-named read-outs stand apart in the source and are kept apart here.

Data set [1] has as its system methicillin-sensitive Staphylococcus aureus 209P. The data set is described as follows: Minimum inhibitory concentration on bacteria. The settings on record: 20 h, read-out: minimum inhibitory concentration (MIC).
Method: (§1) First, 100 μL per hole of a 96-hole test plate was prepared using a Mueller Hinton medium (CAMHB) (and blood added as needed) supplemented with 20 mg/L of Ca^2+ and 10 mg/L of Mg^2+ to give a 2-fold dilution series. […] Each bacterium was cultured in CAMHB (blood added as needed) and added to each of the holes of the test plate at approximately 10000 CFU/mL. The cultures were cultivated at 37° C. for 20 hours, and growth of the bacteria was visually confirmed, and the lowest concentration without growth of the bacteria was defined as the minimum inhibitory concentration (MIC: Minimum Inhibitory Concentration).
(§2) As the bacteria, methicillin-sensitive Staphylococcus aureus 209P, methicillin-resistant Staphylococcus aureus N3115, methicillin-resistant Staphylococcus aureus OM584, vancomycin moderate resistant Staphylococcus aureus Mu50, Pseudomonas aeruginosa wild strain PAO1, Pseudomonas aeruginosa resistance gene quadruple disruption strain YM64, Fecaris ATCC29212, Vancomycin-resistant Fecaris ATCC51299, and Vancomycin-resistant Fecaris NCTC12201 were used.
In data set [2] the test system is methicillin-resistant Staphylococcus aureus N3115. Put plainly: Minimum inhibitory concentration on bacteria. The settings on record: 20 h, read-out: minimum inhibitory concentration (MIC).
Method: as §1, §2
For data set [3], the system named is methicillin-resistant Staphylococcus aureus OM584. Put plainly: Minimum inhibitory concentration on bacteria. Conditions: 20 h, read-out: minimum inhibitory concentration (MIC).
Method: (§3) First, a method for measuring the minimum inhibitory concentration on the bacteria will be described. First, 100 μL per hole of a 96-hole test plate was prepared using a Mueller Hinton medium (CAMHB) (and blood added as needed) supplemented with 20 mg/L of Ca^2+ and 10 mg/L of Mg^2+ to give a 2-fold dilution series. […] Each bacterium was cultured in CAMHB (blood added as needed) and added to each of the holes of the test plate at approximately 10000 CFU/mL. The cultures were cultivated at 37° C. for 20 hours, and growth of the bacteria was visually confirmed, and the lowest concentration without growth of the bacteria was defined as the minimum inhibitory concentration (MIC: Minimum Inhibitory Concentration).
as §2
(§4) Minimum inhibitory concentrations (MIC) were measured against drug-sensitive bacteria and drug-resistant bacteria.
For data set [4], the system named is vancomycin moderate resistant Staphylococcus aureus Mu50. Put plainly: Minimum inhibitory concentration on bacteria. The settings on record: 20 h, read-out: minimum inhibitory concentration (MIC).
Method: as §3, §2, §4
Data set [5] concerns Pseudomonas aeruginosa wild strain PAO1. The data set is described as follows: Minimum inhibitory concentration on bacteria. Conditions: PAO1, 20 h, read-out: minimum inhibitory concentration (MIC).
In the next data set the test system is Fecaris ATCC29212. The data set is described as follows: Minimum inhibitory concentration on bacteria. Conditions: 20 h, read-out: minimum inhibitory concentration (MIC).
Data set [6] has as its system Vancomycin-resistant Fecaris ATCC51299. The data set is described as follows: Minimum inhibitory concentration on bacteria. Conditions: 20 h, read-out: minimum inhibitory concentration (MIC).
Method: as §3, §2, §4
For data set [7], the system named is Vancomycin-resistant Fecaris NCTC12201. The data set is described as follows: Minimum inhibitory concentration on bacteria. The settings on record: 20 h, read-out: minimum inhibitory concentration (MIC).
Method: as §1, §2
Data set [8] can be described thus: Residual amount on SUS substrate after ultrasonic cleaning in water. Conditions: 125 μg/cm^2 applied on SUS substrate. It counts as physicochemical. As for the experimental part:
First, chlorhexidine was dissolved in acetone so as to be 1 mg/mL. […] Chlorhexidine gluconate was dissolved in acetone so as to be 1 mg/mL. […] Subsequently, the concentration of chlorhexidine and the concentration of chlorhexidine gluconate eluted in water were measured by UV-Vis (colorimetric method), and an amount of chlorhexidine and an amount of chlorhexidine gluconate remaining on the substrate were back-calculated from the concentration.

For data set [9], the system named is sheep defibrillated blood (red blood cells). Conditions: 30 min, pH 7.4.
Method: 25 μL of sheep defibrillated blood, a Tyrode solution (NaCl 137 mM, KCl 2.7 mM, CaCl2) 1.0 mM, HEPES 10 mM (pH7.4)), and chlorhexidine gluconate or chlorhexidine solution were mixed. A mixture of 25 μL of sheep defibrillated blood and 975 μL of a Tyrode solution was used as a control, and a mixture of 25 μL of sheep defibrillated blood and 975 μL of purified water was used as a complete hemolysis. The mixtures were left standing at 37° C. for 30 minutes. Thereafter, the mixed liquid is centrifuged, and the supernatant is collected. Absorbance at 545 nm was measured. A hemolysis rate was calculated according to the following formula.
Data set [10] is described as follows: Calcein efflux rate, viral composition artificial membrane (liposomes). Conditions: for Calcein Efflux Rate (%) Virus Composition Artificial Membrane: 30° C., 30 minutes.
Data set [11] in a line: Calcein efflux rate, bacterial composition artificial membrane (liposomes). Conditions: for Calcein Efflux Rate (%) Bacterial Composition Artificial Membrane: 30° C., 30 minutes.
Another data set relates to Candida ATCC12201. The data set is described as follows: Minimum inhibitory concentration on fungi. Type of data set: cell-based. The settings on record: Candida ATCC12201, RPMI1640, 37 °C, 48 hours.
Where [12] appears, read: 2 minutes ultrasonic cleaning in 60 ml of water at 25° C.
Where [13] appears, read: 10 minutes ultrasonic cleaning in 60 ml of water at 25° C.

Method for Candida ATCC12201: The bacteria were cultured in the RPMI1640 and added to each of the holes of the test plate at approximately 200 CFU/mL. The cultures were cultivated at 37 °C for 48 hours, and the growth of the bacteria was visually confirmed, and the minimum concentration without the growth of the bacteria was referred as MIC. Candida ATCC12201 was used as the fungi. […] The minimum inhibitory concentration (MIC) was measured against Candida.
Method for Fecaris ATCC29212: as §3, §2, §4

Consider `CCn1cc(C(=O)O)c(=O)c2cc(F)c(N3CCNCC3)cc21` [Norfloxacin, norfloxacin], for which the MIC is 2 µg/mL (≈ 6.26 µM) in data set [1]; 4 µg/mL (≈ 12.5 µM) in data set [2]; at least 64 µg/mL in data set [3]; at least 64 µg/mL in data set [4]; 2 µg/mL (≈ 6.26 µM) in [5]; 16 µg/mL (≈ 50.1 µM) in the data set with Fecaris ATCC29212. Moreover, the MIC was 8 µg/mL (≈ 25.1 µM) in data set [6] and 16 µg/mL (≈ 50.1 µM) in data set [7].
`[H]/N=C(\N/C(=N/[H])NCCCCCCNC(=N)NC(=N)Nc1ccc(Cl)cc1)Nc1ccc(Cl)cc1` [chlorhexidine gluconate]: the “residual amount on substrate” value was 12.7 μg/cm^2 in [8] (setting [12]) and “could not be calculated” in [8] (setting [13]). The values for the hemolytic activity in [9] (0.05 %) and in [9] (0.1 %) were 9.3% and 75.8%, respectively.
Regarding `[H]/N=C(\N/C(=N/[H])NCCCCCCNC(=N)NC(=N)Nc1ccc(Cl)cc1)Nc1ccc(Cl)cc1` [chlorhexidine], the entries for the “residual amount on substrate” value in data set [8] (setting [12]) and in data set [8] (setting [13]) were 45.4 μg/cm^2 and 43.0 μg/cm^2, respectively. Further, the “Calcein Efflux Rate (%) Virus Composition Artificial Membrane” value was 6.5% in [10] (1 μM (0.51 μg/mL)); 15.9% in data set [10] (2 μM (1.01 μg/mL)); 39.8% in [10] (4 μM (2.02 μg/mL)); 68.5% in data set [10] (8 μM (4.04 μg/mL)); 85.7% in [10] (16 μM (8.09 μg/mL)); 91.6% in [10] (32 μM (16.17 μg/mL)). The “Calcein Efflux Rate (%) Virus Composition Artificial Membrane” value in data set [10] (64 μM (32.35 μg/mL)) is reported as 108.3%; in data set [10] (128 μM (64.70 μg/mL)), 120.9%. In [10] (virus composition artificial membrane), the “concentration at which calcein was still confirmed to elute” value was 0.51 µg/mL. For the same compound, the “Calcein Efflux Rate (%) Bacterial Composition Artificial Membrane” value is on record as −2.7% in [11] (1 μM (0.51 μg/mL)); 2.8% in [11] (2 μM (1.01 μg/mL)); 11.5% in data set [11] (4 μM (2.02 μg/mL)); 54.0% in [11] (8 μM (4.04 μg/mL)); 91.9% in data set [11] (16 μM (8.09 μg/mL)); 95.1% in data set [11] (32 μM (16.17 μg/mL)). Further, the entries for the “Calcein Efflux Rate (%) Bacterial Composition Artificial Membrane” value in [11] (64 μM (32.35 μg/mL)) and in [11] (128 μM (64.70 μg/mL)) were 92.9% and 104.5%, respectively. Also, the “concentration at which calcein was still found to elute” value in [11] (bacterial composition artificial membrane) was 1.01 µg/mL. Also, the MIC against Candida ATCC12201 was 2 µg/mL (≈ 3.96 µM); in data set [1] it was 0.5 µg/mL (≈ 0.989 µM); in [2], 1 µg/mL (≈ 1.98 µM); in data set [3], 4 µg/mL (≈ 7.91 µM); in data set [4] it was 2 µg/mL (≈ 3.96 µM); in data set [5] it was 16 µg/mL (≈ 31.7 µM). The MIC in the data set with Fecaris ATCC29212 stood at 2 µg/mL (≈ 3.96 µM); in [6] it was 4 µg/mL (≈ 7.91 µM); in [7], 4 µg/mL (≈ 7.91 µM). The hemolytic activity in data set [9] (0.028 %) is 11.7%; in [9] (0.056 %) it was 30.2%.
For `OC(Cn1cncn1)(Cn1cncn1)c1ccc(F)cc1F` [fluconazole], the MIC in the data set with Candida ATCC12201 was 0.25 µg/mL (≈ 0.816 µM).

The values above are taken from patent US20240215584A1, “ARTICLE HAVING ANTIVIRAL PROPERTIES, ARTICLE HAVING ANTIMICROBIAL PROPERTIES, AND ARTICLE HAVING ANTIFUNGAL PROPERTIES” (NATIONAL INSTITUTE OF ADVANCED INDUSTRIAL SCIENCE AND …, priority 2021, published 2024).
